Laboratory results from patent publication US6242455A, “Pyrimidin-2,4,6-trion derivatives, method for producing the same and medicinal products containing these compounds” (Roche Diagnostics GmbH, priority 1997, dated 2001).
pIC50: −log10 of the molar value.

Target: T1, Angiotensin-converting enzyme from rabbit lung (Oryctolagus cuniculus, UniProt P12822)
T1 construct: purchased Fluka; host or cells: rabbit lung
T1 sequence (P12822 34-1310): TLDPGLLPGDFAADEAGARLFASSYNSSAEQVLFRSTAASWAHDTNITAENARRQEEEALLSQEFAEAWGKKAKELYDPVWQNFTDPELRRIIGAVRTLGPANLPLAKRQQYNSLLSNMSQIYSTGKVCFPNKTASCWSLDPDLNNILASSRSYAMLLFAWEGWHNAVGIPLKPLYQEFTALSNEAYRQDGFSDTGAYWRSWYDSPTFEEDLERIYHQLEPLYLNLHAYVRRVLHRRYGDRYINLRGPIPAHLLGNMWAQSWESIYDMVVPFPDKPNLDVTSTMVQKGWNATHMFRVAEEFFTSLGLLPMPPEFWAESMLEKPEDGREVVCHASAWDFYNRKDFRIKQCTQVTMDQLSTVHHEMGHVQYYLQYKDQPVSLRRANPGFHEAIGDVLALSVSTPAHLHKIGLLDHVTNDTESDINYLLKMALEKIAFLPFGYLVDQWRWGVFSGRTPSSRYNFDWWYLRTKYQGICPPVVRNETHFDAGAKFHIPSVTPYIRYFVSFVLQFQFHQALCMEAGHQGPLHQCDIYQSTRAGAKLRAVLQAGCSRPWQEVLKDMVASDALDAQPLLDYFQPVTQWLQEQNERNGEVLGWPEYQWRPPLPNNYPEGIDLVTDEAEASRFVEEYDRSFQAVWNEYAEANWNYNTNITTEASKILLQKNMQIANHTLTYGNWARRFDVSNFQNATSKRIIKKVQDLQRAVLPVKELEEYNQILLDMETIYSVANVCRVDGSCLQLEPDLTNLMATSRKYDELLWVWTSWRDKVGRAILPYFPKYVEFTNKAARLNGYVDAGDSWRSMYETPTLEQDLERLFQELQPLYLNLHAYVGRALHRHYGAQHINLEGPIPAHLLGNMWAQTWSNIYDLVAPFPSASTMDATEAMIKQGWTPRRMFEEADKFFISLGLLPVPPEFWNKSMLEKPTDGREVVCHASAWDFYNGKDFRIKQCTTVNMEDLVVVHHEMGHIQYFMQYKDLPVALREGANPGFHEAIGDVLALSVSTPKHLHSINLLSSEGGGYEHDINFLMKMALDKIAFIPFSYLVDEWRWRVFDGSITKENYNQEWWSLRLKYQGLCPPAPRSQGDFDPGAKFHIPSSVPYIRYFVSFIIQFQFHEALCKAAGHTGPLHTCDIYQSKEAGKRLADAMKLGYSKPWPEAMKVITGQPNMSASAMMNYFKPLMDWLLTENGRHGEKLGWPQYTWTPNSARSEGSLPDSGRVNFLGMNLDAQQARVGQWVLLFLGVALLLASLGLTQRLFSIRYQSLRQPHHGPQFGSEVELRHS
Assay: ACE-fluorescence assay for the determination of the IC50 value
Assay type: biochemical
Conditions: substrate Abz-Gly-Phe(NO2)-Pro 20 μM, pH 8.0, 36° C., inhibitor 0 to 100 μM
From the text: ACE-fluorescence assay for the determination of the IC50 value
Literature: Amos Carmel and Arieh Yaron, Eur. J. Biochem. […], 265-273 (1978). An Intramolecularly Quenched Fluorescent Tripeptide as a Fluorogenic Substrate of Angiotensin-I-Converting Enzyme and of Bacterial Dipeptidyl Carboxypeptidase.
Enzyme: Angiotensin-converting enzyme from rabbit lung (EC.3.4.15.1), Fluka (3.3 U/μg)
Substrate: Abz-Gly-Phe(NO2)-Pro, M-1100 Bachem
Assay buffer: 0.05 Tris-HCl
Excitation: 360 nm (excitation slit: 8 nm)
Emission: 410 nm (emission slit: 10 nm)
Substrate stock solution: […] in assay buffer
Enzyme stock solution: […] assay buffer
Inhibitor stock solution: 1 mM in DMSO diluted in assay buffer
Measuring cuvette: 50 μl substrate (yields 20 μM)
0 to 100 μl inhibitor stock solution […]
fill up remainder to 1 ml
Substrate, inhibitor and buffer are added together in a heated measuring cuvette and the enzyme reaction is started by addition of enzyme. The increase in fluorescence over time (200 s) is monitored in a time scan. The respective initial rate is determined from the increase.
The IC50 value can be determined as follows:
V0 =initial rate without inhibitor
[I]=inhibitor concentration

In the case of `CC(C)(C)C(C(=O)O)C(=O)NC1(c2ccccc2)C(=O)NC(=O)NC1=O` (stereo not shown) [Example 4, 3. 3-Dimethyl-2-(2,4,6-trioxo-5-phenyl-hexahydro-pyrimidin-5-ylcarbamoyl)-butyric acid], the pIC50 was 3.80.
